Assay results reported in US20070293666A1, “Optical Filter and Its Applications, and Porphyrin Compound Used in Optical Filter” (Mitsui Chemicals, Inc., priority 2004, published 2007).

Assays:
Format in all cases: physicochemical
[1] = Absorption spectrum in chloroform (maximum absorption wavelength, gram absorption coefficient, 550/525 nm coefficient ratio); conditions: chloroform solution
Description: (§1) Compounds represented by the compound Nos. 1-1, 1-2, 1-3, 1-4 and 1-7 (Table 1-1) were synthesized in the same manner as in Examples 1-1 and 1-2. With respect to compounds synthesized in Example 1-2 and Synthesis Example 1-1 along with these compounds, the maximum absorption wavelength (λmax), the gram absorption coefficient (εg) and solubility were measured.
(§2) λmax and εg are values in the chloroform solution, while the solubility is weight % based on acetone.
With respect to the compounds represented by the compound Nos. 1-2, 1-3, 1-6 and 1-7 synthesized in Examples 1-2 and 1-3 (corresponding to compounds (3-B), (3-C), (3-E) and (3-F) respectively) along with the obtained compound (3-A), the maximum absorption wavelength and the ratio of the absorption coefficient at a wavelength of 550 nm to the absorption coefficient at a wavelength of 525 nm, which were measured in a chloroform solvent, are shown in Table 3-1. [drawing 26] [drawing 27] [drawing 28] [drawing 29]

Solubility in acetone = experiment: Solubility in acetone; design: key: ∘: completely dissolved; x: not completely dissolved
Description: as §1, §2

[2] = Light transmittance of spin-coated optical filter (acrylic adhesive on glass plate); conditions: 0.1 weight % dye diluting agent mixed with acrylic adhesive, dry film 5 μm
Description: (§3) A compound represented by the compound No. 1-4 (Table 1-1) was dissolved in a mixed solvent of acetone and toluene (weight ratio 50:50) such that the concentration was 0.1 weight % to give a dye-containing diluting agent. An acrylic adhesive and the dye-containing diluting agent (weight ratio 50:70) were mixed and applied by spin coating at 800 rpm for 30 seconds onto a glass plate, and the resulting material was dried to prepare an optical filter. The dry film thickness of the coating layer was 5 μm. In the above filter, light transmittance was measured by using a spectrophotometer (UV-3100, manufactured by Shimadzu Corporation). Light transmittance in a wavelength of 550 nm was 47.2%.
as §3, with “2-12” for “1-4”, “2-2) synthesized in the same manner as in Examples 2-1 and 2-2” for “1-1)”, “plate” for “plate,”, “Light transmittance in a wavelength of 550 nm was 47.2%.” left out

εg (gram absorption coefficient) [1]: 115,000
λmax [1]: 552 nm
Solubility 0.1% (Solubility in acetone; 0.1 weight % based on acetone): ∘
Solubility 0.2% (Solubility in acetone; 0.2 weight % based on acetone): ∘
Solubility 1.0% (Solubility in acetone; 1.0 weight % based on acetone): ∘
Light transmittance in a wavelength of 550 nm [2]: 47.2%
SMILES: CCCCCCCCCCOc1ccc(C2=c3nc(c4c5cccc6cccc(c3=4)c65)C(c3ccc(OCCCCCCCCCC)cc3)=c3c4c(c5[n]3[Cu][n]3c2c2c(c3C(c3ccc(OCCCCCCCCCC)cc3)=c3nc(c6c7cccc8cccc(c3=6)c87)C=5c3ccc(OCCCCCCCCCC)cc3)-c3cccc5cccc-2c35)-c2cccc3cccc-4c23)cc1 [1-4]
